Measurements as given in patent US20040029965A1, “Formulations for reducing or eliminating toxicity of enviromental hormones containing ursodeoxycholic acid” (priority 2000, published 2004).

Test system: Ovariectomized female B6C3F1 mice
Test: Uterus weight changes by bisphenol A (uterine proliferation)
Assay type: in vivo
Protocol: Ovariectomized female B6C3F1 mice of 5 weeks old, the average weight of which was 18 to 22 g and had been bred in CRJ, were purchased. They were acclimated under the constant breeding conditions, i.e. the constant temperature of 24±1° C., the humidity of 60±10% and the light and darkness cycle of 12 hours, for one week and then, utilized in the experiment. The animals were supplied with solid feed purchased from Purina and supplied with water ad libitum. After acclimation, test materials dissolved in corn oil were subcutaneously injected once a day for 4 days. The test materials used herein, stock solutions of bisphenol A and UDCA were prepared using ethanol. 2 mg of bisphenol A dissolved in 0.2 ml of corn oil was administered to the mice alone or in combination with UDCA once a day. The administration dose of UDCA was 0.2 or 2.0 mg, and corn oil was administered to the solvent control.
The results are expressed as Mean±Standard Deviation values. ANOVA was performed to evaluate the mean distribution of administered groups. In case that the significance was recognized in ANOVA, the Student's t-test was carried out in the levels of p<0.05 and p<0.01.

SMILES: CC(C)(c1ccc(O)cc1)c1ccc(O)cc1 [Bisphenol A, bisphenol A]
- increase of the weight of uterus (2 mg of bisphenol A once a day, versus corn oil control): about two-fold increased
- Mean weight of uterus ± SD (Bisphenol A 2 mg/day s.c. for 4 days, alone): 13.5 ± 1.75
